# Test: Solubility of hexadecylphosphocholine in co-solvent systems at 25° C.
# Type: physicochemical
# Details: aqueous with cosolvent or surfactant or cyclodextrin
# From the text: The alkylphosphocholines are soluble in water, ethanol and methanol, but there are accurate bibliography data missing. […] For example, the solubility of alkylphosphocholines is sufficiency high in glycols and glycol ether. The improvement of alkylphosphocholines solubility is observed in propylene glycol-hexylene glycol-water mixtures as the solubility of alkylphosphocholines increases with increasing hexylene glycol concentration. The maximum is at 50% hexylene glycol level. […] The alkylphosphocholines solubility response is linear in the propylene glycol-concentration range 40÷60% in the co-solvent mixture. The addition of Transcutol P to the co-solvent mixture increased the solubility of alkylphosphocholines as a function of the concentration of Transcutol P, which may be due to a co-solvency effect. The functions of Transcutol P are simultaneously solubilizer and penetration enhancer to enable the active agent to cross the barrier of the stratum corneum.
structure (smiles),measurement,setting,value
CCCCCCCCCCCCCCCCOP(=O)([O-])OCC[N+](C)(C)C [hexadecylphosphocholine],solubility,"hexylene glycol 22, propylene glycol 44, Transcutol P 2, water 32 % v/v",153 mg/mL
same,solubility,"co-solvent system (hexylene glycol/propylene glycol/water), hexylene glycol 22, propylene glycol 44, Transcutol P 0, water 34 % v/v",138 mg/mL
same,solubility,"co-solvent system (hexylene glycol/water), hexylene glycol 22, propylene glycol 0, Transcutol P 0, water 78 % v/v",119 mg/mL
